Test results taken from patent EP4768484A1, “HETEROCYCLIC FUSED RING COMPOUND, AND COMPOSITION AND USE THEREOF” (Shenzhen TargetRx, Inc., priority 2023, dated 2025).

How the values were obtained:
Assay type in all cases: cell-based
[1] = molecular target: T1, Ba/F3 BCR-ABL1 I502L (Homo sapiens, UniProt P00519+P11274, I502L); assay: Cell growth inhibitory activity assay (CellTiter-Glo), Ba/F3 BCR-ABL1 I502L cells; settings: 72 h, CTG cell viability
T1 construct: BCR (N-terminal fusion partner of the oncoprotein); expressed in transfected cells; host or cells: Ba/F3 (lentiviral transduction, monoclonal line)
Method: (§1) In this assay, the Celltiter-Glo (CTG) kit provided by Promega was used, and it is a homogeneous cell viability assay method. The cell viability of cultured cells was measured by quantifying ATP. K562 cells were purchased from Nanjing Kebai, product number CBP60529; Ba/F3 parental cells were purchased from RIKEN BRC, product number RCB0805; other cells containing BCR-ABL1 WT, BCR-ABL1 T315I, BCR-ABL1 T315M, BCR-ABL1 Y253H/E255K, BCR-ABL1 E255V/T3151, BCR-ABL1 A424T, BCR-ABL1 A337V, BCR-ABL1 P465S, BCR-ABL1 V468F, and BCR-ABL1 I502L were all monoclonal engineered cell lines obtained by transducting Ba/F3 parental cells with the lentivirus plasmids containing WT or corresponding mutated BCR-ABL1.
(§2) The steps of cell viability assay are as follows: • a) Cells in logarithmic growth phase were collected. Cell suspension was prepared and the cells were counted. Concentration of the cells was calculated. • b) The cell suspension was diluted to the required concentration and then added to the middle wells of a 96-well plate, and PBS was added to the edge wells. The wells with no cells and only culture medium were used as blank controls. • c) In addition to the cell plate used for compound analysis, another 96-well plate was prepared as a T0 plate, and 3-6 blank wells and 3-6 cell wells were added. The next day, CTG was used to test the cell viability as the T0 viability value of the cells. • d) The cell plate was incubated at 37 °C in a 5% CO2 incubator overnight. • e) The next day, each concentration of a compound subjected to a gradient dilution was added, and the cell plate was incubated at 37 °C in a 5% CO2 incubator for 72 h. The wells with no compound and only 0.5% DMSO were used as positive controls for cell growth. • f) CTG reagent (CellTiter-Glo kit) was added according to the manufacturer's instructions to test the cell viability value. • g) The plate was read using Biotek cytation3.0 microplate reader and the data were exported. • h) IC50 was calculated using GraphPad Prism 7.0 software.
(§3) The IC50 (half-maximal inhibitory concentration) of the compound was obtained using the following nonlinear fitting formula: Y = Bottom + (Top−Bottom)/(1+10^(∧)((LogIC50−X)*HillSlope)) [formula] • X: Log value of the compound concentration • Y: Inhibition rate (% inhibition) • Top: Maximum response • Bottom: Baseline response • HillSlope: Slope of the curve
(§4) The formula for calculating cell inhibition rate (inhibition rate %) was: [formula]

[2] = molecular target: T2, Ba/F3 BCR-ABL1 Y253H/E255K (Homo sapiens, UniProt P00519+P11274, E255K/Y253H); assay: Cell growth inhibitory activity assay (CellTiter-Glo), Ba/F3 BCR-ABL1 Y253H/E255K cells; settings: 72 h, CTG cell viability
T2 construct: BCR (N-terminal fusion partner of the oncoprotein); expressed in transfected cells; host or cells: Ba/F3 (lentiviral transduction, monoclonal line)
Method: as §1, §2, §3, §4

[3] = molecular target: T3, Ba/F3 BCR-ABL1 T315M (Homo sapiens, UniProt P00519+P11274, T315M); assay: Cell growth inhibitory activity assay (CellTiter-Glo), Ba/F3 BCR-ABL1 T315M cells; settings: 72 h, CTG cell viability
T3 construct: BCR (N-terminal fusion partner of the oncoprotein); expressed in transfected cells; host or cells: Ba/F3 (lentiviral transduction, monoclonal line)
How it was run: (§5)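 Growth inhibition is measured in engineered Ba/F3 cells carrying mutant human BCR-ABL1 and in parental Ba/F3. Compounds in dilution series are applied for 72 h, then cellular ATP is quantified with CellTiter-Glo, normalised using a T0 baseline plate, and IC50 derived by nonlinear regression.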

[4] = molecular target: T4, Ba/F3 BCR-ABL1 P465S (Homo sapiens, UniProt P00519+P11274, P465S); assay: Cell growth inhibitory activity assay (CellTiter-Glo), Ba/F3 BCR-ABL1 P465S cells; settings: 72 h, CTG cell viability
T4 construct: BCR (N-terminal fusion partner of the oncoprotein); expressed in transfected cells; host or cells: Ba/F3 (lentiviral transduction, monoclonal line)
Method: as §1, §2, §3, §4

[5] = molecular target: T5, Ba/F3 BCR-ABL1 A424T (Homo sapiens, UniProt P00519+P11274, A424T); assay: Cell growth inhibitory activity assay (CellTiter-Glo), Ba/F3 BCR-ABL1 A424T cells; settings: 72 h, CTG cell viability
T5 construct: BCR (N-terminal fusion partner of the oncoprotein); expressed in transfected cells; host or cells: Ba/F3 (lentiviral transduction, monoclonal line)
Method: as §1, §2, §3, §4

[6] = system: K562 cells; assay: Cell growth inhibitory activity assay (CellTiter-Glo), K562 cells; settings: Homo sapiens, 72 h, CTG cell viability
How it was run: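 Growth inhibition of human K562 cells, sourced from Nanjing Kebai (CBP60529), was assessed with Promega's CellTiter-Glo kit, which measures viability through ATP quantification. Log-phase cells went into the inner wells of 96-well plates, with PBS in edge wells, incubated overnight at 37 °C and 5% CO2, then exposed to serially diluted compound for 72 h.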

[7] = molecular target: T6, Ba/F3 BCR-ABL1 T315I (Homo sapiens, UniProt P00519+P11274, T315I); assay: Cell growth inhibitory activity assay (CellTiter-Glo), Ba/F3 BCR-ABL1 T315I cells; settings: 72 h, CTG cell viability
T6 construct: BCR (N-terminal fusion partner of the oncoprotein); expressed in transfected cells; host or cells: Ba/F3 (lentiviral transduction, monoclonal line)
How it was run: as §5

[8] = molecular target: T7, Ba/F3 BCR-ABL1 A337V (Homo sapiens, UniProt P00519+P11274, A337V); assay: Cell growth inhibitory activity assay (CellTiter-Glo), Ba/F3 BCR-ABL1 A337V cells; settings: 72 h, CTG cell viability
T7 construct: BCR (N-terminal fusion partner of the oncoprotein); expressed in transfected cells; host or cells: Ba/F3 (lentiviral transduction, monoclonal line)
Method: as §1, §2, §3, §4

[9] = system: Ba/F3 parental cells; assay: Cell growth inhibitory activity assay (CellTiter-Glo), Ba/F3 parental cells; settings: Mus musculus, BaF3, 72 h, CTG cell viability, read-out: IC50 Ba/F3 BCR-ABL1 Parental
How it was run: as §5

[10] = molecular target: T8, Ba/F3 BCR-ABL1 WT (Homo sapiens, UniProt P00519+P11274); assay: Cell growth inhibitory activity assay (CellTiter-Glo), Ba/F3 BCR-ABL1 WT cells; settings: 72 h, CTG cell viability
T8 construct: BCR (N-terminal fusion partner of the oncoprotein); expressed in transfected cells; host or cells: Ba/F3 (lentiviral transduction, monoclonal line)
How it was run: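 Compound dilutions applied for 72 h (37 °C, 5% CO2) to overnight-plated Ba/F3 cells, parental or engineered to express WT/mutant BCR-ABL1. ATP-based CellTiter-Glo luminescence read, referenced to day-0 viability and 0.5% DMSO wells; IC50 fitted by four-parameter logistic curve.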

[11] = molecular target: T9, Ba/F3 BCR-ABL1 E255V/T315I (Homo sapiens, UniProt P00519+P11274, E255V/T315I); assay: Cell growth inhibitory activity assay (CellTiter-Glo), Ba/F3 BCR-ABL1 E255V/T315I cells; settings: 72 h, CTG cell viability
T9 construct: BCR (N-terminal fusion partner of the oncoprotein); expressed in transfected cells; host or cells: Ba/F3 (lentiviral transduction, monoclonal line)
Method: as §1, §2, §3, §4

[12] = molecular target: T10, Ba/F3 BCR-ABL1 V468F (Homo sapiens, UniProt P00519+P11274, V468F); assay: Cell growth inhibitory activity assay (CellTiter-Glo), Ba/F3 BCR-ABL1 V468F cells; settings: 72 h, CTG cell viability
T10 construct: BCR (N-terminal fusion partner of the oncoprotein); expressed in transfected cells; host or cells: Ba/F3 (lentiviral transduction, monoclonal line)
Method: as §1, §2, §3, §4

Row | IC50 [6] [µM] | SMILES | IC50 [1] [µM] | IC50 [2] [µM] | IC50 [3] [µM] | IC50 [4] [µM] | IC50 [5] [µM] | IC50 [7] [µM] | IC50 [8] [µM] | IC50 [9] [µM] | IC50 [10] [µM] | IC50 [11] [µM] | IC50 [12] [µM]
1 | ≤ 0.005 | [2H]C([2H])([2H])N1Cc2ncc(-c3cc(C(=O)Nc4ccc(OC(F)(F)Cl)cc4)cc4nc5n(c34)[C@H](C)COC5)cc2C1=O [T-31, (R)-N-(4-(chlorodifluoromethoxy)phenyl)-4-methyl-6-(6-(methyl-d3)-5-oxo-6,7-dihydro-5H-pyrrolo[3,4-b]pyridin-3-yl)-3,4-dihydro-1H-benzo[4,5]imidazo[2,1-c][1,4]oxazine-8-carboxamide] | 0.05 to 1 | 0.005 to 0.05 | 0.005 to 0.05 | 0.05 to 1 | 0.005 to 0.05 | 0.005 to 0.05 | 0.05 to 1 | > 1 | ≤ 0.005 | 0.005 to 0.05 | 0.005 to 0.05
2 | ≤ 0.005 | C[C@@H]1COCc2nc3cc(C(=O)Nc4ccc(OC(F)(F)Cl)cc4)cc(-c4cnc5c(c4)-c4nn(-c6cncnc6)cc4C5)c3n21 [T-66, (R)-N-(4-(chlorodifluoromethoxy)phenyl)-4-methyl-6-(2-(pyrimidin-5-yl)-2,4-dihydropyrazolo[3',4':3,4]cyclopenta[1,2-b]pyridin-7-yl)-3,4-dihydro-1H-benzo[4,5]imidazo[2,1-c][1,4]oxazine-8-carboxamide] | 0.05 to 1 | 0.05 to 1 | > 1 | 0.05 to 1 | 0.005 to 0.05 | 0.005 to 0.05 | 0.05 to 1 | > 1 | ≤ 0.005 | 0.05 to 1 | 0.05 to 1
3 | ≤ 0.005 | C[C@@H]1COCc2nc3cc(C(=O)Nc4ccc(OC(F)(F)Cl)cc4)cc(-c4cnc5c(c4)-c4nn(C6COC6)cc4C5)c3n21 [T-52, (R)-N-(4-(chlorodifluoromethoxy)phenyl)-4-methyl-6-(2-(oxetan-3-yl)-2,4-dihydropyrazolo[3',4':3,4]cyclopenta[1,2-b]pyridin-7-yl)-3,4-dihydro-1H-benzo[4,5]imidazo[2,1-c] [1,4]oxazine-8-carboxamide] | 0.005 to 0.05 | 0.005 to 0.05 | > 1 | 0.05 to 1 | 0.005 to 0.05 | ≤ 0.005 | 0.05 to 1 | > 1 | ≤ 0.005 | ≤ 0.005 | 0.005 to 0.05
4 | ≤ 0.005 | [2H]C([2H])([2H])C([2H])(n1cc2c(n1)-c1cc(-c3cc(C(=O)Nc4ccc(OC(F)(F)Cl)cc4)cc4nc5n(c34)[C@H](C)COC5)cnc1C2)C([2H])([2H])[2H] [T-54] | 0.005 to 0.05 | ≤ 0.005 | > 1 | 0.005 to 0.05 | 0.005 to 0.05 | ≤ 0.005 | 0.005 to 0.05 | > 1 | ≤ 0.005 | ≤ 0.005 | 0.005 to 0.05
